Read-outs that look alike come from different tables or passages of the source.
Columns and labels:
Rat = assay: Test 2: acute toxicity, rat, oral; format: in vivo, male Wister rats; settings: fourteenth day
Protocol: (§1) The acute toxicity of certain compounds of this invention were studied in the following manner.
(§2) Namely, male ddy-mice of 5 weeks of age and male Wister rats of 8 weeks of age were fasted for 18 hours and used in groups each of which was constituted of 4-5 of mice or rats. The compounds were each dissolved or suspended in a 0.5% methylcellulose solution and administered orally (P.O.). On the fourteenth day after the administration, their toxicity were judged.
(§3) Each numeral set indicates the number of dead animals/the number of teste
(§4) animals. Hyphens (--) indicate that no tests were effected.

Mouse = assay: Test 2: acute toxicity, mouse, oral; format: in vivo, male ddy-mice; settings: fourteenth day
Protocol: as §1, §2, §3, §4

[1] = tested on: Spontaneously Hypertensive Rats; assay: Test 1: antihypertensive effects (systolic tail artery blood pressure) and heart rate in spontaneously hypertensive rats, oral; format: in vivo, rat (male, SHR); settings: for change in vivo at 1 mg/kg: Rattus norvegicus; for Change (%) in heart rate: maximum value
How it was run: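 Male SHRs aged 20 weeks or older (350-430 g), with systolic pressure of 180 mmHg or higher, were used in groups of 3-4. Compounds in 0.5% methylcellulose were given orally, mostly at 1 mg/Kg. Systolic tail-artery blood pressure and heart rate were measured together as percent change.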

[2] = solubility in DMSO (NMR not measured); format: physicochemical; settings: HCl salt
[3] = SHR, oral 1 mg/Kg, 1 hour, read-out: Antihypertensive effects, change (%) in blood pressure, 1 hour later
[4] = SHR, oral 1 mg/Kg, 3 hours, read-out: Antihypertensive effects, change (%) in blood pressure, 3 hours later
[5] = SHR, oral 1 mg/Kg, 6 hours, read-out: Antihypertensive effects, change (%) in blood pressure, 6 hours later
[6] = SHR, oral 1 mg/Kg, 24 hours, read-out: Antihypertensive effects, change (%) in blood pressure, 24 hours later

Row | solubility in DMSO [2] | SMILES | Acute Toxicity, number of dead animals/number of tested animals (Rat; 1 g/Kg P.O.) | Acute Toxicity, number of dead animals/number of tested animals (Mouse; 1 g/Kg P.O.) | change in vivo at 1 mg/kg [1, 3] | change in vivo at 1 mg/kg [1, 4] | change in vivo at 1 mg/kg [1, 5] | change in vivo at 1 mg/kg [1, 6] | Change (%) in heart rate ([1]; SHR, oral 1 mg/Kg) | Acute Toxicity, number of dead animals/number of tested animals (Rat; 3 g/Kg P.O.) | Acute Toxicity, number of dead animals/number of tested animals (Mouse; 3 g/Kg P.O.) | change in vivo at 1 mg/kg ([1]; po, 1 h, read-out: Antihypertensive effects, change (%) in blood pressure, 1 hour later) | change in vivo at 1 mg/kg ([1]; po, 3 h, read-out: Antihypertensive effects, change (%) in blood pressure, 3 hours later) | change in vivo at 1 mg/kg ([1]; po, 6 h, read-out: Antihypertensive effects, change (%) in blood pressure, 6 hours later) | change in vivo at 1 mg/kg ([1]; po, 24 h, read-out: Antihypertensive effects, change (%) in blood pressure, 24 hours later)
1 | – | CCCC(=O)N1CCCN(c2nc(N)c3cc(OC)c(OC)cc3n2)CC1 [Example E-643, Bunazosin, reference compound] | 2/4 | 0/5 | -4.8% | -12% | -13.5% | -6.7% | +8.8% | – | – | – | – | – | –
2 | – | COc1cc2nc(N3CCN(c4ncc5c(n4)CN(C)C5=O)CC3)nc(N)c2cc1OC [Example 24] | 0/5 | 0/5 | -7.2% | -24.8% | -28.6% | -8.7% | +12.0% | 0/5 | 0/5 | – | – | – | –
3 | – | COc1cc2nc(N3CCN(C(=O)c4ccco4)CC3)nc(N)c2cc1OC [Prazosin, prazosin, reference compound] | 0/5 | 0/5 | – | – | – | – | +8.0% | 0/3 | 0/5 | -23.6% | -25.1% | -24.6% | -5%
4 | – | CCNc1nc(N2CCN(c3nc(N)c4cc(OC)c(OC)cc4n3)CC2)ncc1C(=O)OC.Cl [Example 2, 4-Amino-6,7-dimethoxy-2-(4-(4-ethylamino-5-methoxycarbonylpyrimidine-2-yl)piperazino)quinazoline hydrochloride] | 0/5 | 0/5 | -9% | -23.9% | -38.8% | -16.4% | +18.4% | 0/5 | 0/5 | – | – | – | –
5 | – | COC(=O)c1cnc(N2CCN(c3nc(N)c4cc(OC)c(OC)cc4n3)CC2)nc1NC(C)C [Example 62] | 0/5 | 0/5 | -1.4% | -24% | -31.3% | -21.2% | +7.6% | – | – | – | – | – | –
6 | – | COc1cc2nc(N3CCN(c4ncc5c(=O)n(C)ccc5n4)CC3)nc(N)c2cc1OC [Example 4] | 0/5 | 0/5 | -4.4% | -22.1% | -26.5% | -16.7% | +5.7% | 0/5 | 0/5 | – | – | – | –
7 | – | CCn1ccc2nc(N3CCN(c4nc(N)c5cc(OC)c(OC)cc5n4)CC3)ncc2c1=O [Example 1, 4-Amino-6,7-dimethoxy-2-(4-(5,6-dihydro-6-ethyl-5-oxopyrido[4,3-d]pyrimidin-2-yl)piperazino)quinazoline] | 0/5 | 0/5 | -10.7% | -17.3% | -23% | -8.2% | +4.1% | 0/5 | 0/5 | – | – | – | –
8 | insolubility | COc1cc2nc(N3CCN(c4ncc5c(n4)CNC5=O)CC3)nc(N)c2cc1OC [Example 22] | – | – | -1.5% | -10.1% | -17.1% | -4% | +17.7% | – | – | – | – | – | –
9 | – | CCN1C(=O)CCCc2nc(N3CCN(c4nc(N)c5cc(OC)c(OC)cc5n4)CC3)ncc21 [Example 32] | – | 0/5 | -20.2% | -30.5% | -35.2% | -16.4% | +11.0% | – | – | – | – | – | –
10 | – | CCNC(=O)c1cnc(N2CCN(c3nc(N)c4cc(OC)c(OC)cc4n3)CC2)nc1NCC [Example 66] | – | 0/5 | -18% | -23.7% | -28.9% | -16% | +3.8% | – | – | – | – | – | –
11 | – | CCN1CCc2nc(N3CCN(c4nc(N)c5cc(OC)c(OC)cc5n4)CC3)ncc2C1=O [Example 17] | – | 0/5 | 0% | -20.2% | -27.9% | -12% | +10.8% | – | – | – | – | – | –
12 | – | CCN1Cc2nc(N3CCN(c4nc(N)c5cc(OC)c(OC)cc5n4)CC3)ncc2C1=O [Example 23] | – | 0/5 | -11.7% | -21.9% | -27% | -2.6% | +23.1% | – | 0/5 | – | – | – | –
13 | – | COc1cc2nc(N3CCN(c4ncc5c(n4)N(C(C)C)C(=O)C5)CC3)nc(N)c2cc1OC [Example 30] | – | 0/5 | -7.4% | -24.7% | -32.1% | -8.8% | +11.7% | – | – | – | – | – | –
14 | – | COc1cc2nc(N3CCN(c4ncc5c(n4)N(C)C(=O)C5)CC3)nc(N)c2cc1OC [Example 29] | 0/5 | 0/5 | -5.2% | -23% | -35.2% | -13.1% | +10.1% | 0/4 | 0/5 | – | – | – | –

From patent publication US4734418A, “Quinazoline compounds and antihypertensives” (priority 1984, dated 1988)
